# Like-named read-outs stand apart in the source and are kept apart here. Marks after values point to notes of the source that are not given here.
# Tests used:
# [1] = Motesanib plasma pharmacokinetics (LC-MS/MS, noncompartmental); design: species or system human; conditions: in vivo; for half-life / Tmax / AUC(0-t) / concentration at 24 h / Cmax: human; for AUC(0-t) / concentration at 24 h / Cmax: week 3; for AUC(0-t): read-out: AUC0–24, median; for concentration at 24 h: read-out: C24, median; for Cmax: read-out: Cmax, median
# Description: Plasma concentrations of motesanib were analyzed using a validated liquid chromatography/tandem mass spectrometry (LC-MS/MS) method with a lower limit of quantitation (LLOQ) of 0.2 ng/mL (Cedra Corp., Austin, TX).
# Pharmacokinetic parameter estimates were calculated according to standard noncompartmental methods using WinNonlin software (version 5.1.1; Pharsight Corporation, Mountain View, CA) and summarized by dose level. […] For the BID cohort, AUC0—24 values for motesanib were determined by 2 × AUC0—12. The terminal elimination rate constant (λZ) was determined by linear regression of the natural logarithms of plasma concentrations versus time during the terminal phase; the corresponding t1/2 was calculated.
# [2] = tested on: patients with solid tumours; design: method as in PMID 18971935; conditions: in combination with gemcitabine; cited from earlier work
# [3] = tested on: patients with solid tumors; assay: Adverse events graded by CTCAE version 3.0, relatedness by investigator; format: in vivo, human
# Description: Cohort enrollment could be expanded to ensure that at least 6 evaluable patients were enrolled or in the event of unresolved safety, pharmacokinetic, or other concerns. The overall sample size could be further increased if additional dose cohorts were considered justified based on the results from the dose-escalation portion of the study. For continuous endpoints, the mean, standard error or standard deviation (SD); median; 25th and 75th percentiles; and minimum and maximum were calculated. For discrete data, the frequency and percent distributions were calculated. No formal comparisons between cohorts were performed. The data were analyzed using SAS software version 8.2 (SAS Institute, Cary, NC). […] The safety analysis set included all patients who received at least 1 dose of study therapy.
# [4] = 125 mg QD motesanib + 100 mg QD erlotinib + gemcitabine
# [5] = 125 mg QD motesanib + 150 mg QD erlotinib
# [6] = motesanib 50 mg QD + gemcitabine + erlotinib 100 mg QD, n = 7
# [7] = motesanib 75 mg BID + gemcitabine + erlotinib 100 mg QD, n = 9
# [8] = motesanib 100 mg QD + erlotinib 150 mg QD, n = 7
# [9] = motesanib 100 mg QD + gemcitabine + erlotinib 100 mg QD, n = 8
smiles,measurement,setting,value
CC1(C)CNc2cc(NC(=O)c3cccnc3NCc3ccncc3)ccc21 [motesanib],half-life,"[1]; 100 mg, read-out: Mean estimated terminal elimination half-life (t1/2, z)",4.8 to 8.6 h
same,Tmax,"[1]; 100 mg, read-out: Overall median tmax",0.6 to 2 h
same,Tmax,[1]; 150 mg,2 h
same,half-life,[1]; 150 mg,6 to 7.7 h
same,AUC(0-t),[1]; [4],4770 ng·h/mL
same,concentration at 24 h,[1]; [4],37 ng/mL
same,Cmax,[1]; [4],655 ng/mL
same,AUC(0-t),[1]; [5],3120 ng·h/mL
same,concentration at 24 h,[1]; [5],44.7 ng/mL
same,Cmax,[1]; [5],443 ng/mL
same,Effect of combination on motesanib pharmacokinetics,[1],not markedly affected
same,Target dose,[2],125 mg QD
same,Patients with grade ≥ 3 motesanib-related adverse events,[3]; all motesanib cohorts,Twenty-three
same,Grade 5 motesanib-related adverse events,"[3]; human, in vivo",No grade 5 motesanib-related adverse events occurred
same,Motesanib-related diarrhea,"[3]; human, in vivo",19 n
same,Motesanib-related fatigue,"[3]; human, in vivo",12 n
same,Motesanib-related nausea,"[3]; human, in vivo",18 n
same,Motesanib-related vomiting,"[3]; human, in vivo",13 n
same,Patients discontinuing treatment with the drug because of adverse events,"[3]; human, in vivo",9 n
same,Serious motesanib-related deep vein thrombosis,"[3]; human, in vivo",2 n
same,Serious motesanib-related diarrhea,"[3]; human, in vivo",2 n
same,Serious motesanib-related nausea,"[3]; human, in vivo",5 n
same,Serious motesanib-related pulmonary embolism,"[3]; human, in vivo",2 n
same,Serious motesanib-related tumor necrosis,"[3]; human, in vivo",2 n
same,Serious motesanib-related vomiting,"[3]; human, in vivo",5 n
same,"Abnormal liver function test, grade 3 (motesanib-related)",[3]; [6],0 n
same,"Adverse events of grade 3, n (motesanib-related)",[3]; [6],0 n
same,"Adverse events of grade 4, n (Pulmonary)",[3]; [6],1 n
same,"Any adverse event, n (motesanib-related)",[3]; [6],3 n
same,Cardiac toxicity (all grade 3),[3]; [6],0 n
same,"Deep vein thrombosis, grade 3 (motesanib-related)",[3]; [6],0 n
same,"Diarrhea, grade 3 (motesanib-related)",[3]; [6],0 n
same,"Fatigue, grade 3 (motesanib-related)",[3]; [6],0 n
same,"Febrile neutropenia, grade 4 (motesanib-related)",[3]; [6],1 n
same,Gallbladder toxicity,[3]; [6],0 n
same,"Gallbladder toxicity, Grade 3",[3]; [6],0 n
same,Hemorrhagic events,[3]; [6],0 n
same,"Hemorrhagic events, Grade 3",[3]; [6],0 n
same,"Hypertension, highest (worst) grade: Grade 3",[3]; [6],0 n
same,"Nausea, grade 3 (motesanib-related)",[3]; [6],0 n
same,"Neutropenia, grade 3 (motesanib-related)",[3]; [6],0 n
same,"Neutropenia, grade 4 (motesanib-related)",[3]; [6],0 n
same,"Pulmonary embolism, grade 4 (motesanib-related)",[3]; [6],0 n
same,Thrombophlebitis (all grade 3),[3]; [6],0 n
same,"Tumor necrosis, grade 3 (motesanib-related)",[3]; [6],0 n
same,"Vomiting, grade 3 (motesanib-related)",[3]; [6],0 n
same,"Abnormal liver function test, grade 3 (motesanib-related)",[3]; [7],0 n
same,"Adverse events of grade 3, n (motesanib-related)",[3]; [7],3 n
same,"Adverse events of grade 4, n (Pulmonary)",[3]; [7],1 n
same,"Any adverse event, n (motesanib-related)",[3]; [7],7 n
same,Cardiac toxicity (all grade 3),[3]; [7],0 n
same,"Deep vein thrombosis, grade 3 (motesanib-related)",[3]; [7],0 n
same,"Diarrhea, grade 3 (motesanib-related)",[3]; [7],0 n
same,"Fatigue, grade 3 (motesanib-related)",[3]; [7],0 n
same,"Febrile neutropenia, grade 4 (motesanib-related)",[3]; [7],0 n
same,Gallbladder toxicity,[3]; [7],0 n
same,"Gallbladder toxicity, Grade 3",[3]; [7],0 n
same,Hemorrhagic events,[3]; [7],0 n
same,"Hemorrhagic events, Grade 3",[3]; [7],0 n
same,"Hypertension, highest (worst) grade: Grade 3",[3]; [7],0 n
same,"Nausea, grade 3 (motesanib-related)",[3]; [7],1 n
same,"Neutropenia, grade 3 (motesanib-related)",[3]; [7],0 n
same,"Neutropenia, grade 4 (motesanib-related)",[3]; [7],1 n
same,"Pulmonary embolism, grade 4 (motesanib-related)",[3]; [7],0 n
same,Thrombophlebitis (all grade 3),[3]; [7],0 n
same,"Tumor necrosis, grade 3 (motesanib-related)",[3]; [7],1 n
same,"Vomiting, grade 3 (motesanib-related)",[3]; [7],0 n
same,"Abnormal liver function test, grade 3 (motesanib-related)",[3]; [8],0 n
same,"Adverse events of grade 3, n (motesanib-related)",[3]; [8],3 n
same,"Adverse events of grade 4, n (Pulmonary)",[3]; [8],0 n
same,"Any adverse event, n (motesanib-related)",[3]; [8],7 n
same,Cardiac toxicity (all grade 3),[3]; [8],0 n
same,"Deep vein thrombosis, grade 3 (motesanib-related)",[3]; [8],0 n
same,"Diarrhea, grade 3 (motesanib-related)",[3]; [8],2 n
same,"Fatigue, grade 3 (motesanib-related)",[3]; [8],0 n
same,"Febrile neutropenia, grade 4 (motesanib-related)",[3]; [8],0 n
same,"Gallbladder toxicity, Grade 3",[3]; [8],0 n
same,"Hemorrhagic events, Grade 3",[3]; [8],0 n
same,"Hypertension, highest (worst) grade: Grade 3",[3]; [8],0 n
same,"Nausea, grade 3 (motesanib-related)",[3]; [8],0 n
same,"Neutropenia, grade 3 (motesanib-related)",[3]; [8],1 n
same,"Neutropenia, grade 4 (motesanib-related)",[3]; [8],0 n
same,"Pulmonary embolism, grade 4 (motesanib-related)",[3]; [8],0 n
same,Thrombophlebitis (all grade 3),[3]; [8],0 n
same,"Tumor necrosis, grade 3 (motesanib-related)",[3]; [8],1 n
same,"Vomiting, grade 3 (motesanib-related)",[3]; [8],0 n
same,Hemorrhagic events,"[3]; motesanib 100 mg QD + erlotinib 150 mg QD, n = 7, epistaxis (grade 1)",1^e n
same,Gallbladder toxicity,"[3]; motesanib 100 mg QD + erlotinib 150 mg QD, n = 7, gallbladder enlargement (grade 2)",1^c n
same,"Abnormal liver function test, grade 3 (motesanib-related)",[3]; [9],1 n
same,"Adverse events of grade 3, n (motesanib-related)",[3]; [9],3 n
same,"Adverse events of grade 4, n (Pulmonary)",[3]; [9],0 n
same,"Any adverse event, n (motesanib-related)",[3]; [9],8 n
same,"Deep vein thrombosis, grade 3 (motesanib-related)",[3]; [9],0 n
same,"Diarrhea, grade 3 (motesanib-related)",[3]; [9],1 n
same,"Fatigue, grade 3 (motesanib-related)",[3]; [9],1 n
same,"Febrile neutropenia, grade 4 (motesanib-related)",[3]; [9],0 n
same,Gallbladder toxicity,[3]; [9],0 n
same,"Gallbladder toxicity, Grade 3",[3]; [9],0 n
same,Hemorrhagic events,[3]; [9],0 n
same,"Hemorrhagic events, Grade 3",[3]; [9],0 n
same,"Hypertension, highest (worst) grade: Grade 3",[3]; [9],0 n
same,"Nausea, grade 3 (motesanib-related)",[3]; [9],0 n
same,"Neutropenia, grade 3 (motesanib-related)",[3]; [9],1 n
same,"Neutropenia, grade 4 (motesanib-related)",[3]; [9],0 n
same,"Pulmonary embolism, grade 4 (motesanib-related)",[3]; [9],0 n
same,Thrombophlebitis (all grade 3),[3]; [9],0 n
same,"Tumor necrosis, grade 3 (motesanib-related)",[3]; [9],0 n
same,"Vomiting, grade 3 (motesanib-related)",[3]; [9],1 n
same,Cardiac toxicity (all grade 3),"[3]; motesanib 100 mg QD + gemcitabine + erlotinib 100 mg QD, n = 8, congestive heart failure and pulmonary edema",1^f n
